{"source": "patent EP1976513B1", "about": "(priority 2006, dated 2007)", "key": {"mice [1]": {"test_system": "mice", "assay": "Mouse tail suspension test", "assay_type": "in vivo", "conditions": "PO, 30-60 minutes before the test, 5 minutes recording"}, "Rats [2]": {"test_system": "Rats", "assay": "Rat locomotor activity", "assay_type": "in vivo", "conditions": "PO", "method_in_brief": "(§1)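 Animals pretreated with vehicle or compound, then placed individually in photocell cages. Horizontal and vertical activity recorded in 5-min bins for up to 60 min. Analysed by one-way ANOVA with post-hoc tests.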"}, "[3]": {"molecular_target": "Norepinephrine Transporter (NET) Sites in Mouse Brain (Mus musculus, UniProt O55192)", "sequence (O55192 whole entry)": "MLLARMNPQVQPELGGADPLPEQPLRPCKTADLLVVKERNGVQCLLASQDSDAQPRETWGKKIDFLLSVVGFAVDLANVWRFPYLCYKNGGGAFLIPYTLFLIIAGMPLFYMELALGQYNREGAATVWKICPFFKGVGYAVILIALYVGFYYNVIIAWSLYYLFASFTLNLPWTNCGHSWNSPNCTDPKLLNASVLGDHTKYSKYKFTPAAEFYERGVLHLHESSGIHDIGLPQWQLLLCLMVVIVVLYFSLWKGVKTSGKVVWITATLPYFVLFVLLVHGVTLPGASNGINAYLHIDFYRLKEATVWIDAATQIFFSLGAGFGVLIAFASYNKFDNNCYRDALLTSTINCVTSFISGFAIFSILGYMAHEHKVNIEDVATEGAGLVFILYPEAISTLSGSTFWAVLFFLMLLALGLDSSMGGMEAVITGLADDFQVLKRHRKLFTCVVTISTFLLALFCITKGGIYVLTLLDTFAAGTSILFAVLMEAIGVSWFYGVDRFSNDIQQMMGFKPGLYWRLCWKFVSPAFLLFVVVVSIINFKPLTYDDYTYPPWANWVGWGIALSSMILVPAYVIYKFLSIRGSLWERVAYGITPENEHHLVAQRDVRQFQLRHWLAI", "conditions": "PO; for % Transporter Occupancy, NET: 60 minutes after treatment, vs vehicle; for Mean Specific Binding (dpm) ± S.E.M., NET: mice sacrificed 60 minutes after treatment, cortex"}, "serotonin transporter": {"molecular_target": "T1, serotonin transporter (Rattus norvegicus, UniProt P31652)", "T1 construct": "synaptosomes isolated in a 0.32M sucrose buffer from a male Wistar rat cortex; from tissue; host or cells: male Wistar rat cortex synaptosomes", "T1 sequence (P31652 whole entry)": "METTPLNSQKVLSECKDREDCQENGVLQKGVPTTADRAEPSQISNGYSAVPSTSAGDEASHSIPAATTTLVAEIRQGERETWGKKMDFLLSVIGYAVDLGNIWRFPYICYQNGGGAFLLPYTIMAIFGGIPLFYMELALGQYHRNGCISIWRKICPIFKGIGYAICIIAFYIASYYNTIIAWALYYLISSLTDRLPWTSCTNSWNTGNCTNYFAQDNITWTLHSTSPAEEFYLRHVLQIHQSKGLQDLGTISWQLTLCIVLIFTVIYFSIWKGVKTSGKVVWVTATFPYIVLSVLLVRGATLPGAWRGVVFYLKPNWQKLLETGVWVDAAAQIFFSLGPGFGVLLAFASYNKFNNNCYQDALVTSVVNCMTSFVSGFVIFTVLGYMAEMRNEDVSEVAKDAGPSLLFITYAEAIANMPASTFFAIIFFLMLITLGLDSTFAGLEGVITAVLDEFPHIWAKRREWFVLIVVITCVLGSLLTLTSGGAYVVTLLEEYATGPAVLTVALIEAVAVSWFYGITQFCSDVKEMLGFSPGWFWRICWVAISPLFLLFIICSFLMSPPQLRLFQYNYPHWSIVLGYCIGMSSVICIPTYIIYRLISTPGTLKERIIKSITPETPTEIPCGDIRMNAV", "assay": "biochemical", "conditions": "Rat IC50 (nM) rSERT, rat synaptosomes, serotonin transporter (SERT)"}, "[4]": {"molecular_target": "T2, DA Transporter (DAT) Sites in Mouse Brain (Mus musculus, UniProt Q61327)", "T2 construct": "Striatum was used to determine occupancy of DA transporter sites; from tissue; host or cells: C57BL/6 mouse striatum homogenate", "T2 sequence (Q61327 whole entry)": "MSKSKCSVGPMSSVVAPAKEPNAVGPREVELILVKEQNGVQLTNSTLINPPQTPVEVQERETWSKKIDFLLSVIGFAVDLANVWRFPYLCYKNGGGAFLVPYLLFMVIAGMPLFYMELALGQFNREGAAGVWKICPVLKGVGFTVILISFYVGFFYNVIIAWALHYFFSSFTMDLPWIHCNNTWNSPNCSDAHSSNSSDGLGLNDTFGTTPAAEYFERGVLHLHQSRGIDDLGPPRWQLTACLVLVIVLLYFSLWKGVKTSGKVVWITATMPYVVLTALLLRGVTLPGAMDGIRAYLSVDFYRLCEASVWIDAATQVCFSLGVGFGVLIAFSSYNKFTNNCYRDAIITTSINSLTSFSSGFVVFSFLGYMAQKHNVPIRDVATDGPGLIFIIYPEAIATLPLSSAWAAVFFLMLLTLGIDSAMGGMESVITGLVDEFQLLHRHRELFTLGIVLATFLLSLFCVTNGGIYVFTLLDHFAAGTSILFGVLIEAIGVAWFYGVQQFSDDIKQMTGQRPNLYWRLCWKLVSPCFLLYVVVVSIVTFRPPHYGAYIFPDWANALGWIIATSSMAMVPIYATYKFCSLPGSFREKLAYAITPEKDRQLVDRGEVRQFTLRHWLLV", "assay": "Ex vivo [3H] WIN 35428 binding after oral dosing", "design": "species or system C57BL/6 mice", "conditions": "for % Transporter Occupancy, DAT: 60 minutes after treatment, vs vehicle; for Mean Specific Binding (dpm) ± S.E.M., DAT: mice sacrificed 60 minutes after treatment, striatum"}, "[5]": {"molecular_target": "T3, 5-HT Transporter (SERT) Sites in Mouse Brain (Mus musculus, UniProt Q60857)", "T3 construct": "Whole brains were removed and cortex and striata dissected out; from tissue; host or cells: C57BL/6 mouse frontal cortex homogenate", "T3 sequence (Q60857 whole entry)": "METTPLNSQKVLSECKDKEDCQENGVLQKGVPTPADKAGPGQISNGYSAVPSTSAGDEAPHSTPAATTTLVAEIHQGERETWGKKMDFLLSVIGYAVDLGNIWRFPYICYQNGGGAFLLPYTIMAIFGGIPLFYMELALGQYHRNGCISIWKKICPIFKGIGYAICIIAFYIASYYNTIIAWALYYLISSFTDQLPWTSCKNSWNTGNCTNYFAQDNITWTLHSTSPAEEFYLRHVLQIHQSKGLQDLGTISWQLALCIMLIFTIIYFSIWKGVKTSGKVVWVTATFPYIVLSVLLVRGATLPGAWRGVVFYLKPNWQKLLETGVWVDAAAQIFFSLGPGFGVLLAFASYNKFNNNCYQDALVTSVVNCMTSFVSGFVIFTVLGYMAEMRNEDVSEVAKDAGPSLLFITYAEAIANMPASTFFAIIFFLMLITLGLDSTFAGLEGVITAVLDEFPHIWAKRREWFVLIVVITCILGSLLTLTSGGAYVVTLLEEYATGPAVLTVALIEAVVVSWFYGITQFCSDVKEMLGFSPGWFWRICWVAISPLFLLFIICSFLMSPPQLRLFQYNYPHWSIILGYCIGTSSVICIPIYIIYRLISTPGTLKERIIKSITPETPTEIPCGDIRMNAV", "assay": "Ex vivo [3H] citalopram binding after oral dosing", "design": "species or system C57BL/6 mice", "conditions": "for % Transporter Occupancy, SERT: 60 minutes after treatment, vs vehicle; for Mean Specific Binding (dpm) ± S.E.M., SERT: mice sacrificed 60 minutes after treatment, cortex"}, "[6]": {"molecular_target": "T4, norepinephrine transporter (Rattus norvegicus, UniProt Q63380)", "T4 construct": "synaptosomes isolated in a 0.32 M sucrose buffer from a male Wistar rat hypothalamus; from tissue; host or cells: male Wistar rat hypothalamus synaptosomes", "T4 sequence (Q63380 1-617)": "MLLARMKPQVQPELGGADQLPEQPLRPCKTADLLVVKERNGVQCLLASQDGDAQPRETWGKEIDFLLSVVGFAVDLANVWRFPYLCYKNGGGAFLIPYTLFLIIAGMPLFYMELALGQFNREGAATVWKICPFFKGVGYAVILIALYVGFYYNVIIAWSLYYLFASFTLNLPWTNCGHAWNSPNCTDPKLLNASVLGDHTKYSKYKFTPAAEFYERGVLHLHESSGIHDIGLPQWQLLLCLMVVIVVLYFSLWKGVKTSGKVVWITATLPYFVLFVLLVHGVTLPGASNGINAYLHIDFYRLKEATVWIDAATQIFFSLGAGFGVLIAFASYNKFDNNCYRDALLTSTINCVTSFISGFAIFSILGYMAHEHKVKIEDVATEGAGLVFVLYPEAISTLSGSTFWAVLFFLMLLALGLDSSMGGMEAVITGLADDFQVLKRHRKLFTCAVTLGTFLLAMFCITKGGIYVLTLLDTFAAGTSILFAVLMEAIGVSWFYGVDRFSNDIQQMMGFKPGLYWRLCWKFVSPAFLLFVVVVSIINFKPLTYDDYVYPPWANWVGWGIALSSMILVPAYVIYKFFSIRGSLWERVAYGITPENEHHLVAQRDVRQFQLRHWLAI", "assay": "biochemical", "assay_type": "biochemical", "conditions": "Rat IC50 (nM) rNET, rat synaptosomes, norepinephrine transporter (NET)"}, "mice [7]": {"test_system": "mice", "assay": "Mouse locomotor activity", "assay_type": "in vivo", "conditions": "PO", "method_in_brief": "as §1"}, "dopamine transporter": {"molecular_target": "T5, dopamine transporter (Rattus norvegicus, UniProt P23977)", "T5 construct": "synaptosomes isolated in a 0.32 M sucrose buffer from a male Wistar rat striatum; from tissue; host or cells: male Wistar rat striatum synaptosomes", "T5 sequence (P23977 whole entry)": "as the sequence (Q61327 whole entry) above, with P21S, V57A, S194A, R600H, V619L counted along it", "assay": "biochemical", "conditions": "Rat IC50 (nM) rDAT, rat synaptosomes, dopamine transporter (DAT)"}, "Rats [8]": {"test_system": "Rats", "assay": "Rat forced swim test", "assay_type": "in vivo", "conditions": "PO, 24 hours and 30-60 minutes before the 5 minute test"}, "serotonin uptake sites": {"molecular_target": "serotonin uptake sites (Homo sapiens, UniProt P31645)", "sequence (P31645 whole entry)": "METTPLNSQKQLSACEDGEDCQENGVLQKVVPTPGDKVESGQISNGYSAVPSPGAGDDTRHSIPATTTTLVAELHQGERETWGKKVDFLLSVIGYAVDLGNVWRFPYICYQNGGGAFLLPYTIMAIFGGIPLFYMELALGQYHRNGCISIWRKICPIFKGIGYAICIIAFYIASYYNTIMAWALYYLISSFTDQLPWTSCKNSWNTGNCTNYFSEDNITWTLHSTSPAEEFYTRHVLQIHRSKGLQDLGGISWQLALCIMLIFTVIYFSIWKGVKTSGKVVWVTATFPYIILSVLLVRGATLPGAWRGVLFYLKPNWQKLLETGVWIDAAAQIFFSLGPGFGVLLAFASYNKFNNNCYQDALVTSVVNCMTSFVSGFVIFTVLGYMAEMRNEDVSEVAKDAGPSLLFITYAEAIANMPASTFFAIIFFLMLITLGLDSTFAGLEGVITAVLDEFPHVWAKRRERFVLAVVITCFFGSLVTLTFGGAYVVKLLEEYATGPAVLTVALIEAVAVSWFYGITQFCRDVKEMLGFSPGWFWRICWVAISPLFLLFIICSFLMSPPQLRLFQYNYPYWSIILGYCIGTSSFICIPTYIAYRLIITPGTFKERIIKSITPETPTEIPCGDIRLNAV", "conditions": "compared with the racemic compound; U.S. Patent No. 6,372,919; cited from earlier work"}, "[9]": {"conditions": "literature; cited from earlier work"}}, "note": "Where two headings read alike, the source gives them in different places.", "data": [{"compound": "CC(N(C)C)C1(c2ccc3ccccc3c2)CCCCC1", "note": "(single isomer, unassigned) [56 E1, N,N-dimethyl-1-(1-(naphthalen-2-yl)cyclohexyl)ethanamine]; on Mouse Locomotor Activity Total Distance Traveled ± S.E.M.: unit not given here", "values": [{"measurement": "Mouse Tail Suspension Mean Immobility Time ± S.E.M.", "setting": "mice [1]; 3 mg/kg", "result": "184.0 ± 4.8"}, {"measurement": "Mouse Tail Suspension Mean Immobility Time ± S.E.M.", "setting": "mice [1]; 10 mg/kg", "result": "174.8 ± 6.1"}, {"measurement": "Mouse Tail Suspension Mean Immobility Time ± S.E.M.", "setting": "mice [1]; 30 mg/kg", "result": "141.9 ± 7.4"}, {"measurement": "Rat Locomotor Activity Total Distance Traveled ± S.E.M.", "setting": "Rats [2]; 3 mg/kg", "result": "1227.9 ± 84.4"}, {"measurement": "Rat Locomotor Activity Total Distance Traveled ± S.E.M.", "setting": "Rats [2]; 10 mg/kg", "result": "1230.8 ± 64.8"}, {"measurement": "Rat Locomotor Activity Total Distance Traveled ± S.E.M.", "setting": "Rats [2]; 30 mg/kg", "result": "1359.8 ± 132.7"}, {"measurement": "% Transporter Occupancy, NET", "setting": "[3]; 1 mg/kg", "result": 20, "unit": "%"}, {"measurement": "Mean Specific Binding (dpm) ± S.E.M., NET", "setting": "[3]; 1 mg/kg", "result": "616 ± 50", "unit": "dpm"}, {"measurement": "% Transporter Occupancy, NET", "setting": "[3]; 3 mg/kg", "result": 52, "unit": "%"}, {"measurement": "Mean Specific Binding (dpm) ± S.E.M., NET", "setting": "[3]; 3 mg/kg", "result": "368 ± 17", "unit": "dpm"}, {"measurement": "% Transporter Occupancy, NET", "setting": "[3]; 10 mg/kg", "result": 86, "unit": "%"}, {"measurement": "Mean Specific Binding (dpm) ± S.E.M., NET", "setting": "[3]; 10 mg/kg", "result": "106 ± 20", "unit": "dpm"}, {"measurement": "% Transporter Occupancy, NET", "setting": "[3]; 30 mg/kg", "result": 98, "unit": "%"}, {"measurement": "Mean Specific Binding (dpm) ± S.E.M., NET", "setting": "[3]; 30 mg/kg", "result": "19 ± 2", "unit": "dpm"}, {"measurement": "IC50", "setting": "serotonin transporter", "result": 2.9, "unit": "nM"}, {"measurement": "% Transporter Occupancy, DAT", "setting": "[4]; 1 mg/kg", "result": 5, "unit": "%"}, {"measurement": "Mean Specific Binding (dpm) ± S.E.M., DAT", "setting": "[4]; 1 mg/kg", "result": "41561 ± 1611", "unit": "dpm"}, {"measurement": "% Transporter Occupancy, DAT", "setting": "[4]; 3 mg/kg", "result": 4, "unit": "%"}, {"measurement": "Mean Specific Binding (dpm) ± S.E.M., DAT", "setting": "[4]; 3 mg/kg", "result": "42127 ± 2130", "unit": "dpm"}, {"measurement": "% Transporter Occupancy, DAT", "setting": "[4]; 10 mg/kg", "result": 23, "unit": "%"}, {"measurement": "Mean Specific Binding (dpm) ± S.E.M., DAT", "setting": "[4]; 10 mg/kg", "result": "33478 ± 1779", "unit": "dpm"}, {"measurement": "% Transporter Occupancy, DAT", "setting": "[4]; 30 mg/kg", "result": 67, "unit": "%"}, {"measurement": "Mean Specific Binding (dpm) ± S.E.M., DAT", "setting": "[4]; 30 mg/kg", "result": "14637 ± 1567", "unit": "dpm"}, {"measurement": "% Transporter Occupancy, SERT", "setting": "[5]; 1 mg/kg", "result": 19, "unit": "%"}, {"measurement": "Mean Specific Binding (dpm) ± S.E.M., SERT", "setting": "[5]; 1 mg/kg", "result": "2625 ± 138", "unit": "dpm"}, {"measurement": "% Transporter Occupancy, SERT", "setting": "[5]; 3 mg/kg", "result": 58, "unit": "%"}, {"measurement": "Mean Specific Binding (dpm) ± S.E.M., SERT", "setting": "[5]; 3 mg/kg", "result": "1346 ± 109", "unit": "dpm"}, {"measurement": "% Transporter Occupancy, SERT", "setting": "[5]; 10 mg/kg", "result": 91, "unit": "%"}, {"measurement": "Mean Specific Binding (dpm) ± S.E.M., SERT", "setting": "[5]; 10 mg/kg", "result": "278 ± 42", "unit": "dpm"}, {"measurement": "% Transporter Occupancy, SERT", "setting": "[5]; 30 mg/kg", "result": 95, "unit": "%"}, {"measurement": "Mean Specific Binding (dpm) ± S.E.M., SERT", "setting": "[5]; 30 mg/kg", "result": "151 ± 60", "unit": "dpm"}, {"measurement": "IC50", "setting": "[6]", "result": 2.3, "unit": "nM"}, {"measurement": "Mouse Locomotor Activity Total Distance Traveled ± S.E.M.", "setting": "mice [7]; 3 mg/kg", "result": "410.2 ± 89.3"}, {"measurement": "Mouse Locomotor Activity Total Distance Traveled ± S.E.M.", "setting": "mice [7]; 10 mg/kg", "result": "440.2 ± 62.6"}, {"measurement": "Mouse Locomotor Activity Total Distance Traveled ± S.E.M.", "setting": "mice [7]; 30 mg/kg", "result": "252.2 ± 55.8"}, {"measurement": "IC50", "setting": "dopamine transporter", "result": 24, "unit": "nM"}, {"measurement": "Rat Forced Swim (Means ± S.E.M.) Climbing", "setting": "Rats [8]; 3 mg/kg", "result": "7.1 ± 1.6"}, {"measurement": "Rat Forced Swim (Means ± S.E.M.) Immobility", "setting": "Rats [8]; 3 mg/kg", "result": "52.2 ± 1.6"}, {"measurement": "Rat Forced Swim (Means ± S.E.M.) Swimming", "setting": "Rats [8]; 3 mg/kg", "result": "0.3 ± 0.2"}, {"measurement": "Rat Forced Swim (Means ± S.E.M.) Climbing", "setting": "Rats [8]; 10 mg/kg", "result": "8.6 ± 0.9"}, {"measurement": "Rat Forced Swim (Means ± S.E.M.) Immobility", "setting": "Rats [8]; 10 mg/kg", "result": "50.7 ± 1.0"}, {"measurement": "Rat Forced Swim (Means ± S.E.M.) Swimming", "setting": "Rats [8]; 10 mg/kg", "result": "0.8 ± 0.3"}, {"measurement": "Rat Forced Swim (Means ± S.E.M.) Climbing", "setting": "Rats [8]; 30 mg/kg", "result": "17.9 ± 2.4"}, {"measurement": "Rat Forced Swim (Means ± S.E.M.) Immobility", "setting": "Rats [8]; 30 mg/kg", "result": "40.4 ± 2.7"}, {"measurement": "Rat Forced Swim (Means ± S.E.M.) Swimming", "setting": "Rats [8]; 30 mg/kg", "result": "1.0 ± 0.4"}]}, {"compound": "Clc1ccc(C23CNCC2C3)cc1Cl", "note": "(single isomer, unassigned; (+)) [DOV 21,947, (+)-1-(3,4-dichlorophenyl)-3-azabicyclo[3.1.0]hexane]", "values": [{"measurement": "affinity for the serotonin uptake sites", "setting": "serotonin uptake sites", "result": "significantly greater affinity"}, {"measurement": "immobility in the tail suspension test", "setting": "[9]", "result": "dose-dependent reduction in immobility"}]}]}
